Reference: ChEMBL document CHEMBL1201862, “PubChem BioAssay data set” (2004)
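Tested at 5 concentrations; 48 h exposure; 96-well plates; endpoints linearly interpolated, else capped at highest concentration. GI50 is the concentration that inhibits growth by half.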 Active and inactive are the calls of the source. No stated cut-off is given here; in the data, active = GI50 up to about 1.1 µM and inactive = higher.

Key:
Experiment in all cases: inhibition of tumour cell growth, NCI panel, 48 h
786-0 = test system: 786-0
EKVX = test system: EKVX
HCT-116 = test system: HCT-116
KM12 = test system: KM12
LOX IMVI = test system: LOX IMVI
MOLT-4 = test system: MOLT-4
NCI-H226 = test system: NCI-H226
NCI-H460 = test system: NCI-H460
NCI-H522 = test system: NCI-H522
OVCAR-5 = test system: OVCAR-5
PC-3 = test system: PC-3
SF-539 = test system: SF-539
SK-MEL-28 = test system: SK-MEL-28
SNB-19 = test system: SNB-19
T47D = test system: T47D
TK-10 = test system: TK-10
UO-31 = test system: UO-31
MDA-N = test system: MDA-N
RXF 393 = test system: RXF 393

Structure (SMILES)	GI50 (786-0)	GI50 (EKVX)	GI50 (HCT-116)	GI50 (KM12)	GI50 (LOX IMVI)	GI50 (MOLT-4)	GI50 (NCI-H226)	GI50 (NCI-H460)	GI50 (NCI-H522)	GI50 (OVCAR-5)	GI50 (PC-3)	GI50 (SF-539)	GI50 (SK-MEL-28)	GI50 (SNB-19)	GI50 (T47D)	GI50 (TK-10)	GI50 (UO-31)	GI50 (MDA-N)	GI50 (RXF 393)
CC(=O)OC1C2CCC1C1C2N=NN1c1ccc([N+](=O)[O-])cc1 (configuration not stated)	> 100 µM (inactive)	> 100 µM (inactive)	> 100 µM (inactive)	> 100 µM (inactive)	> 100 µM (inactive)	> 100 µM (inactive)	> 100 µM (inactive)	> 100 µM (inactive)	64.4 µM (inactive)	> 100 µM (inactive)	> 100 µM (inactive)	> 100 µM (inactive)	> 100 µM (inactive)	> 100 µM (inactive)	> 100 µM (inactive)	> 100 µM (inactive)	> 100 µM (inactive)	–	–
COc1ccc(-n2cnc3c(NC(CCSC)C(=O)O)ncnc32)cc1 (configuration not stated)	> 100 µM (inactive)	> 100 µM (inactive)	> 100 µM (inactive)	> 100 µM (inactive)	> 100 µM (inactive)	> 100 µM (inactive)	> 100 µM (inactive)	> 100 µM (inactive)	> 100 µM (inactive)	> 100 µM (inactive)	> 100 µM (inactive)	–	> 100 µM (inactive)	> 100 µM (inactive)	> 100 µM (inactive)	> 100 µM (inactive)	> 100 µM (inactive)	> 100 µM (inactive)	–
CCCCCCNC(=O)c1cnc(Cl)cn1	26.1 µM (inactive)	5.93 µM (inactive)	17.1 µM (inactive)	15.9 µM (inactive)	14.6 µM (inactive)	4.82 µM (inactive)	10 µM (inactive)	19.3 µM (inactive)	0.206 µM (active)	17.3 µM (inactive)	5.51 µM (inactive)	17.6 µM (inactive)	24 µM (inactive)	17.5 µM (inactive)	20 µM (inactive)	22.4 µM (inactive)	1.85 µM (inactive)	–	–
CCC1(c2ccc(N3C(=O)c4cccc5cc([N+](=O)[O-])cc(c45)C3=O)cc2)CCC(=O)NC1=O (configuration not stated)	7.38 µM (inactive)	11.7 µM (inactive)	5.42 µM (inactive)	> 100 µM (inactive)	11.9 µM (inactive)	11.9 µM (inactive)	10.9 µM (inactive)	6.35 µM (inactive)	1.81 µM (inactive)	60.8 µM (inactive)	20.9 µM (inactive)	> 10 µM (inactive)	22.2 µM (inactive)	35 µM (inactive)	24.4 µM (inactive)	33 µM (inactive)	4.44 µM (inactive)	–	7.14 µM (inactive)
CCc1n[nH]c(=O)n1CCO	> 100 µM (inactive)	> 100 µM (inactive)	> 100 µM (inactive)	> 100 µM (inactive)	> 100 µM (inactive)	> 100 µM (inactive)	> 100 µM (inactive)	> 100 µM (inactive)	–	> 100 µM (inactive)	> 100 µM (inactive)	> 100 µM (inactive)	> 100 µM (inactive)	> 100 µM (inactive)	> 100 µM (inactive)	> 100 µM (inactive)	> 100 µM (inactive)	> 100 µM (inactive)	–
CCc1n[nH]c(=O)n1O	> 100 µM (inactive)	> 100 µM (inactive)	> 100 µM (inactive)	> 100 µM (inactive)	–	> 100 µM (inactive)	> 100 µM (inactive)	–	> 100 µM (inactive)	–	–	> 100 µM (inactive)	> 100 µM (inactive)	> 100 µM (inactive)	> 100 µM (inactive)	> 100 µM (inactive)	> 100 µM (inactive)	> 100 µM (inactive)	–
CC(=O)N1C(NN(C)C)CCN1c1ccccc1 (configuration not stated)	> 10 µM (inactive)	> 10 µM (inactive)	–	> 10 µM (inactive)	–	> 10 µM (inactive)	–	–	–	–	> 10 µM (inactive)	–	> 10 µM (inactive)	–	> 10 µM (inactive)	> 10 µM (inactive)	–	–	> 10 µM (inactive)
CC1=C(C(=O)c2ccccc2)C23C(=O)N(c4ccccc4)C(=O)C2=C(O)C=CC3(O)N1 (configuration not stated)	35 µM (inactive)	76.6 µM (inactive)	37.9 µM (inactive)	23.9 µM (inactive)	19.8 µM (inactive)	–	35 µM (inactive)	40.8 µM (inactive)	12.7 µM (inactive)	47.2 µM (inactive)	28.4 µM (inactive)	47.9 µM (inactive)	17.3 µM (inactive)	37.9 µM (inactive)	37.2 µM (inactive)	67.1 µM (inactive)	12.2 µM (inactive)	–	20.2 µM (inactive)
Cc1ccc(-c2c(C#N)c(-c3ccc([N+](=O)[O-])cc3)c(C#N)c(=O)n2NS(=O)(=O)c2ccc(C)cc2)cc1	65 µM (inactive)	47.5 µM (inactive)	36.6 µM (inactive)	30.2 µM (inactive)	33.4 µM (inactive)	19.8 µM (inactive)	> 100 µM (inactive)	39.8 µM (inactive)	31.8 µM (inactive)	> 100 µM (inactive)	42.8 µM (inactive)	38.1 µM (inactive)	52.8 µM (inactive)	56.6 µM (inactive)	–	51.3 µM (inactive)	–	75.9 µM (inactive)	52.2 µM (inactive)
COC(=O)[C@](NC(=O)OCc1ccccc1)([C@@H](C)[S+]([O-])c1ccc(C)cc1)C(F)(F)F (some centres not stated)	52.2 µM (inactive)	29.2 µM (inactive)	42.1 µM (inactive)	29.3 µM (inactive)	33.7 µM (inactive)	18.7 µM (inactive)	35.2 µM (inactive)	29 µM (inactive)	24.6 µM (inactive)	> 100 µM (inactive)	27.9 µM (inactive)	–	62.7 µM (inactive)	43 µM (inactive)	35.8 µM (inactive)	21.5 µM (inactive)	27.7 µM (inactive)	–	20 µM (inactive)
O=C(Nc1ccccc1)c1cc2c(cc1Cl)SC(NNCCO)=NS2(=O)=O	> 100 µM (inactive)	> 100 µM (inactive)	> 100 µM (inactive)	> 100 µM (inactive)	> 100 µM (inactive)	> 100 µM (inactive)	> 100 µM (inactive)	> 100 µM (inactive)	–	–	> 100 µM (inactive)	> 100 µM (inactive)	> 100 µM (inactive)	> 100 µM (inactive)	> 100 µM (inactive)	> 100 µM (inactive)	> 100 µM (inactive)	–	> 100 µM (inactive)
C[C@H]1O[C@@H](c2c(O)ccc3ccccc23)C[C@@H](N(C)C)C1O (some centres not stated)	91.6 µM (inactive)	> 100 µM (inactive)	> 100 µM (inactive)	–	> 100 µM (inactive)	–	43.7 µM (inactive)	52.7 µM (inactive)	> 100 µM (inactive)	> 100 µM (inactive)	48.3 µM (inactive)	> 100 µM (inactive)	97.5 µM (inactive)	> 100 µM (inactive)	–	41.3 µM (inactive)	41.4 µM (inactive)	> 100 µM (inactive)	20.7 µM (inactive)
Cc1ccc2c(O)cc(-c3sc4ccccc4c3C)nc2n1	20.5 µM (inactive)	25.5 µM (inactive)	20.1 µM (inactive)	15.7 µM (inactive)	21.8 µM (inactive)	26.1 µM (inactive)	20.4 µM (inactive)	–	16.4 µM (inactive)	34 µM (inactive)	–	–	19.1 µM (inactive)	29.9 µM (inactive)	14.5 µM (inactive)	46.6 µM (inactive)	0.661 µM (active)	13.2 µM (inactive)	–
